Experimental data reported in patent US8470333B2, “Chimeric peptides comprising HER-2 B-cell epitopes and T-helper epitopes” (The Ohio State University Research Foundation, priority 2005, dated 2013).
Positions of bridges follow the written chain, without caps; N, C: chain ends. No end group written: not given here.

Legend:
NT2.5 tumor cell line = test: NT2.5 tumor challenge in immunized FVB/n mice; type: in vivo, mouse; conditions: for doubling time: NT2.5 tumor in vaccinated FVB/N mice; for mean tumor volumes at day 30: FVB/n mice, 5×10^6 NT2.5 cells s.c. two weeks after final immunization, data not shown
Excerpt: (§1) The human EGFR disulfide pairings have been defined. Based on the high homology between EGFR and HER-2, the 628-647 epitope to 626-649 to incorporate two disulfide bonds between Cys-626 and Cys-634, and Cys-630 and Cys-642. Differential side chain protection and a specialized deprotection and oxidation successfully generated the cyclized product with a desired secondary structural characteristics as determined by CD measurements. […] Cyclized antibodies elicited twice the level of specific lysis compared to non-cyclized antibodies in an ADCC assay (11 and 5.6% respectively). To investigate the in vivo effect of these peptide vaccines, inbred FVB/N mice were immunized with the constructs. Both constructs were immunogenic in these mice with the cyclized construct generating higher titers. These mice were then challenged with the NT2.5 tumor cell line which has an FVB/N background.
To better understand the potential clinical benefit associated with introducing conformational constraints into B-cell epitope vaccines, both FVB/n and neu-N transgenic mice were challenged with the tumor cell line NT2.5 derived from a spontaneous mammary tumor isolated from a neu-N transgenic mouse. As a consequence of neu over-expression these mice develop spontaneous mammary adenocarcinomas in a manner similar to that observed in human breast cancer patients, and are therefore a suitable model for human breast cancer studies. […] (lower abdomen) two weeks after final immunization. Tumor measurements were taken twice weekly until day 55. Tumor volumes were calculated by the formula (long measurement×short measurement^2)/2. Note that after day 30 the tumors in FVB/n mice begin to regress, indicative of rejection of the tumor. With subsequent tumor studies using FVB/n mice, tumors were measured to day 30.

trastuzumab = test: ELISA binding of trastuzumab to peptides; conditions: FIG. 4
Procedure: The peptide sequences are given on the x-axis. MVF316-339 is an Her-2 irrelevant control peptide;
Microtiter wells were coated overnight with 2 μg/ml of various peptides and then blocked with 1% BSA for one hour. […] Values shown are the mean of duplicate samples. SEM are indicated by error bars.

FVB/n mice = test: Immunogenicity in FVB/n mice, antibody titers by direct ELISA; type: in vivo, mouse
Procedure: Groups of four to ten FVB/n mice were immunized with linear (NC) or disulfide-bonded (SS) peptide constructs (A) MVF563-598, (B) MVF585-598, (C) MVF597-626, or the linear peptide (D) MVF613-626. Each mouse is represented as an individual bar. Note that the scale in A is different then B-D;
Direct ELISAs were performed on sera from mice immunized with the cyclized (CYC) and linear (NC) constructs to determine differences in immunogenicity. Antibody titers against the corresponding immunogen were defined as the reciprocal of the highest dilution with absorbance ≧0.2. Each bar represents an individual mouse. Designation on the x-axis represents time at which sera was sampled, e.g. 1y+3 corresponds to serum collected three weeks after the first immunization. Neu-N mice have an FVB/n background and express normal rat neu proto-oncogene under control of a mammary-specific promoter. These mice show tolerance to neu relative to non-transgenic mice (Cancer Research 60, 3569).
Direct ELISA. U-bottom polyvinyl chloride plastic assay plates were coated with 100 μl of antigen at 2 μg/ml in PBS overnight at 4° C. Nonspecific binding sites were blocked for 1 hour with 200 μl PBS-1% BSA and plates were washed with PBT (phosphate-buffered saline containing 0.05% Tween 20 and 1% horse serum). Rabbit antiserum 1/500 or mouse antiserum 1/50 in PBT was added to antigen coated plates, serially diluted 1:2 in PBT, and incubated 2 hr at room temperature. After washing the plates, 50 μl of 1/500 goat anti-rabbit or goat anti-mouse IgG conjugated to horseradish peroxidase (Pierce Chemical Co.) was added to each well. Excess antibody conjugate was removed, and bound antibody was detected using 50 μl of 0.15% H2O2 in 24 mM citric acid, 5 mM sodium phosphate buffer, pH 5.2, with 0.5 mg/ml […] as the chromophore. Color development was allowed to proceed for 10 min and the reaction was stopped with 25 μl of 1% sodium dodecylsulfate. Absorbance was determined at 410 nm using a Dynatech MR700ELISA reader. Results are expressed as the mean absorbance of duplicate wells after subtraction of background.
The immunogenicity of the 4 constructs listed in Table 1 was determined using both the disulfide-bonded and linear constructs by immunizing groups of FVB/n mice (n=4-9) 6-8 weeks old. […] Three mice that received the cyclized form of 597-626 had titers above 120,000, while no mouse that received the linear form had titers above 120,000.

effector human PBMCs = test: IFN-γ release in the presence of effector human PBMCs; type: cell-based; conditions: antibodies against the construct
ADCC assay (Example 1) = type: cell-based; conditions: antibodies against the epitope
Excerpt: as §1

HER-2 protein = target: T1, HER-2 protein (Homo sapiens, UniProt P04626); test: Flow cytometry binding of anti-peptide antibodies to HER-2 protein (Example 1); type: cell-based; conditions: antibodies against the epitope; flow cytometry binding to HER-2 protein
T1 construct: endogenous in cells; host or cells: SKBR3 or MCF-7 according to the general method
Procedure: Indirect Binding Assay. SKBR3 cells or MCF-7 cells were plated at 5,000 cells/well in V-bottom plates (Linbro, McLean Va.). The cells were incubated with various concentrations of antibodies. After being washed with Hank's Balanced Salts Solution (HBSS) the cells were incubated for one hour with fluorescein isothiocyanate (FITC)-conjugated goat anti-rabbit or goat anti-mouse antibody and fixed with formalin. A mouse monoclonal Ab (Oncogene Science, Cambridge, Mass.) was used as the positive control and an anti-CD3 Ab as the negative control. The cells were analyzed by a Coulter ELITE flow cytometer (Coulter, Hialeah, Fla.), which has an argon laser for excitation at 488 nm, and a 525 run band pass filter for FITC fluorescence 5.0×10^3 cells were counted for each sample and final processing was performed. Debris, cell clusters and dead cells were gated out by light scatted assessment before single parameter histograms were drawn.
The human EGFR disulfide pairings have been defined. Based on the high homology between EGFR and HER-2, the 628-647 epitope to 626-649 to incorporate two disulfide bonds between Cys-626 and Cys-634, and Cys-630 and Cys-642. Differential side chain protection and a specialized deprotection and oxidation successfully generated the cyclized product with a desired secondary structural characteristics as determined by CD measurements. […]

[1] = tested on: cells overexpressing HER-2; test: Anchorage-independent growth assay; type: cell-based; conditions: antibodies against the epitope
[2] = tested on: BT-474 human breast cancer cells (HER-2high); test: Flow cytometry of peptide antibodies with BT474 cells; type: cell-based
Procedure: Flow cytometry was used to assess whether antibodies from FVB/n mice induced by various constructs recognize native HER-2. BT-474 human breast cancer cells (HER-2high) were treated with 10 μg/mL of normal mouse Ig (negative control), mouse monoclonal Ab-2 (positive control), or peptide antibodies raised in FVB/n mice.
(§2) The reactivity of purified antibodies from immunized mouse sera was tested with (A) BT474 and (B) SKBR-3 breast cancer cell lines using flow cytometric analysis. Ab binding was detected with goat-anti mouse FITC-conjugated abs. The x-axis represents fluorescent intensity, and the y-axis represents relative cell number. Each histogram contains an overlay of mouse pre IgG, peptide antibodies, and AB2, a mouse mAb that binds HER-2.
(§3) Indirect Binding Assay. SKBR3 cells or MCF-7 cells were plated at 5,000 cells/well in V-bottom plates (Linbro, McLean Va.). The cells were incubated with various concentrations of antibodies. […] The cells were analyzed by a Coulter ELITE flow cytometer (Coulter, Hialeah, Fla.), which has an argon laser for excitation at 488 nm, and a 525 run band pass filter for FITC fluorescence 5.0×10^3 cells were counted for each sample and final processing was performed. […]

[3] = tested on: SKBR-3 breast cancer cell line; test: Flow cytometry of peptide antibodies with SKBR-3 cells; type: cell-based, human; conditions: purified antibodies from immunized mouse sera, FIG. 13
Procedure: as §2
Cell Culture. Stock cultures were maintained at 37° C. in a 5% CO2 incubator. All cell culture media, FCS, and supplements were purchased from GEBCO (Grand Island, N.Y.). The human breast adenocarcinoma cell lines SKBR-3 and MCF-7 were obtained from the American Type Culture Collection and was subcultured in McCoy's 5A or DMEM supplemented with 10% FCS and L-glutainine. Cav-1 was maintained in RPMI 1640 with 10% FCS and L-glutamine. […] SKBR3 is a breast tumor cell line which overexpresses the HER-2 protein while MCF-7 expresses the normal concentration of protein.
as §3, with “Va.).” for “Va.). The cells were incubated with various concentrations of antibodies.”

[4] = by day 33, compared to both unimmunized and MVF immunized mice

For “KLLSLIKGVIVHRLEGVE [MVF control peptide, reference compound]”, the doubling time (NT2.5 tumor cell line) was 4.48 days.
In the case of “KLLSLIKGVIVHRLEGVE-GPSL-CHPECQPQNGSVTCFGPEADQCVACAHYKDPPFCVA (KLLSLIKGVIVHRLEGVEGPSLCHPECQPQNGSVTCFGPEADQCVACAHYKDPPFCVA; disulfide (positions not given here)) [MVF 563 SS]”, the “mean tumor volumes at day 30” value (NT2.5 tumor cell line; listed as 563-598 SS) is reported as 173.7292 mm^3, the binding to trastuzumab (trastuzumab) is reported as “Maximum binding” and the immunogenicity (FVB/n mice; FVB/n mice, Example 3, FIG. 3) is reported as “highly immunogenic”. For the same substance, the titers (FVB/n mice; two mice of the group, three weeks after the third immunization) was “above 250,000”.
In the case of “KLLSLIKGVIVHRLEGVE-GPSL-CHPECQPQNGSVTCFGPEADQCVACAHYKDPPFCVA [563-598 NC]”, the “mean tumor volumes at day 30” value (NT2.5 tumor cell line) is reported as 166.517 mm^3.
With “KLLSLIKGVIVHRLEGVE-GPSL-CPINCTHSCVDLDDKGCPAEQRAS [626-649 cyclized]” the doubling time (NT2.5 tumor cell line) was 6.63 days, the tumor volume (NT2.5 tumor cell line; immunized FVB/N mice challenged with NT2.5, compared to linear and control MVF immunized mice) was “reduction in tumor volume” and the IFN-γ release (effector human PBMCs) was “able to elicit IFN-γ release”. The “higher levels of IFN-γ compared to the linear antibodies” value (effector human PBMCs) was 25%, the specific lysis (ADCC assay (Example 1)) was 11% and the mean log fluorescence (HER-2 protein) was 2.29. For the same substance, the “inhibition (reduction of growth)” value [1] was 31% and the immunogenicity (FVB/n mice; inbred FVB/N mice, Example 1) was “higher titers”.
For “KLLSLIKGVIVHRLEGVE-GPSL-CPINCTHSCVDLDDKGCPAEQRAS [626-649 linear]”, the doubling time (NT2.5 tumor cell line) was 4.31 days, the IFN-γ release (effector human PBMCs) was “able to elicit IFN-γ release” and the specific lysis (ADCC assay (Example 1)) was 5.6%. For the same substance, the mean log fluorescence (HER-2 protein) was 1.65, the “inhibition (reduction of growth)” value [1] was 58% and the immunogenicity (FVB/n mice; inbred FVB/N mice, Example 1) was “immunogenic”.
For “KLLSLIKGVIVHRLEGVE-GPSL-IWKFPDEEGACQPL (KLLSLIKGVIVHRLEGVEGPSLIWKFPDEEGACQPL) [MVF 613]”, the tumor volume (NT2.5 tumor cell line; [4]) was “reduction in tumor volume”, the “shift in flow cytometry” value ([2]; FVB/n purified antibodies, FIG. 5) was “shifted relative to normal mouse antibodies” and the “recognition of HER-2” value ([2]; purified antibodies from immunized mouse sera, FIG. 13) was “recognize HER-2”. The “recognition of HER-2” value [3] was “recognize HER-2” and the immunogenicity (FVB/n mice; FVB/n mice, Example 3, FIG. 3) was “highly immunogenic”.
With “KLLSLIKGVIVHRLEGVE-GPSL-LHCPALVTYNTDTFESMPNPEGRYTFGASCV (KLLSLIKGVIVHRLEGVEGPSLLHCPALVTYNTDTFESMPNPEGRYTFGASCV; also: cyclized) [MVF 266 CYC]” the “tumor development and growth” value (NT2.5 tumor cell line; wild-type FVB/n mice, 3×106 NT2.5 cells s.c., 24 days, compared to MVF immunized mice only) was “delayed tumor development (A) and growth (B)”.
For “KLLSLIKGVIVHRLEGVE-GPSL-VACAHYKDPPFCVA (KLLSLIKGVIVHRLEGVEGPSLVACAHYKDPPFCVA; disulfide 25-34 (inferred)) [MVF 585 SS]”, the tumor volume (NT2.5 tumor cell line; [4]) was “reduction in tumor volume”.
For “KLLSLIKGVIVHRLEGVE-GPSL-VARCPSGVKPDLSYMPIWKFPDEEGACQPL [597-626 linear]”, the titers (FVB/n mice; no mouse of the group above this value) was ≤ 120,000.
